Experiments:
Hippocampal neurons = test: Effect of inhibitors on BDNF-induced gene transcription (real time RT-PCR); format: cell-based, rat; conditions: for Effect on BDNF-induced transcription of the immediate early genes and VGF: BDNF 20 min for immediate early genes, 3 hr for VGF; for Effect of inhibitor on BDNF-induced VGF transcription / Effect of inhibitor on BDNF-induced Arc transcription / Effect of inhibitor on BDNF-induced c-fos transcription / Effect of inhibitor on BDNF-induced EGR-1 transcription: 30 min pre-incubation, K252a 200 nM, U0126 30 μM, PD98059 50 μM, U73122 10 μM, KN93 10 μM, LY294002 30 μM, H-89 1 μM, CC 1 μM; for Effect of inhibitor on BDNF-induced VGF transcription: BDNF 3 Hours; for Effect of inhibitor on BDNF-induced Arc transcription / Effect of inhibitor on BDNF-induced c-fos transcription / Effect of inhibitor on BDNF-induced EGR-1 transcription: BDNF 20 Minutes
Protocol: Signaling cascades involved in BDNF-mediated synaptic strengthening include mitogen-activated protein (MAP) kinase, phospholipase C-γ (PLC-γ) and phosphoinositide-3 kinase (PI3K) (Gottschalk et al. (1999) supra; Minichiello et al. (2002) supra; Ying et al. (2002); Mizuno et al. (2003) supra). To determine whether these transduction pathways are also required for BDNF transcriptional regulation of immediate early genes at 20 minutes and for VGF at 3 hours, pharmacological inhibitors were employed (Table 2).
Effect of inhibitors on BDNF-induced gene transcription. The regulation of BDNF-induced genes in the presence of inhibitors was determined by real time RT-PCR. Neurons were pre-incubated with inhibitors for 30 minutes prior to BDNF treatment (20 minutes for immediate early genes and 3 hours for VGF). […] “blocked” indicates significant reduction of transcription in the presence of inhibitor plus BDNF relative to BDNF alone (p<0.05, ANOVA, n=3).
Each experiment consisted of four groups: vehicle, inhibitor alone, BDNF, BDNF plus inhibitor. Data were normalized to GAPDH and expressed as a fold change of vehicle control.
(§1) cDNA (100 μl) was prepared from 2 μg control or BDNF-treated RNA using random primers and Superscript II reverse transcriptase. 25 μl PCR reactions were then carried out using gene specific primers designed by Primer Express software and TaqMan MGB probes (Applied Biosystems 7000 Sequence Detection System, Foster City, Calif.). Duplicate wells were included for each condition and primer pair. Primers specific to the housekeeping gene, glyceraldehyde-3-phosphate dehydrogenase (GAPDH) were used as an internal control. Data analysis was performed according to the protocol provided by Applied Biosystems.
Hippocampal neurons were pre-incubated with inhibitors for 30 min prior to BDNF treatment (20 min for IEGs and 3 hr for VGF). All inhibitors were purchased from Calbiochem, San Diego, Calif. K252a (200 nM), U0126 (30 μM), PD98059 (50 μM), U73122 (10 μM), KN93 (10 μM), LY294002 (30 μM), H-89 (1 μM) and chelerythrine chloride (CC, 1 μM). Pharmacological inhibitors were tested for efficacy by assaying downregulation of endogenous kinase phosphorylation in cell culture using Western blot (Y. Z. Du and C. F. Dreyfus, personal communication). Each experiment consisted of 4 groups: vehicle, inhibitor alone, BDNF, and BDNF plus inhibitor. Following inhibitor and BDNF treatments, RNA was isolated and subjected to real time RT-PCR as described above.

hippocampal cells = test: Real-time RT-PCR of genes induced by neurotrophin treatment of hippocampal cultures; format: cell-based, rat; set-up: key to NGF effect on Fra2 transcription / NGF effect on CyclinD1 transcription / NGF effect on c-fos transcription / NGF effect on Kv + 1.1 transcription / NGF effect on Na + ch transcription / NGF effect on SgII transcription / NGF effect on SSTR4 transcription / NGF effect on UNC5H2 transcription / NGF effect on NPY transcription / NGF effect on VGF transcription / NGF effect on EGR1 transcription / NGF effect on PTP1B transcription / NGF effect on Arc transcription: UC = unchanged; DOWN: down = decreased
Protocol: The molecular genetics underlying BDNF-evoked plasticity were examined by expression profiling using cDNA microarrays on a population of hippocampal cells in vitro. Synaptic effects of BDNF are observed within 20 minutes of exposure (Levine et al. (1996) supra; Lessmann and Heumann (1998) supra; Schinder et al. (2000) supra). A 3-hour BDNF treatment has been used to identify several genes with roles in synaptic plasticity (Thakker-Varia et al. (2001) supra). Consequently, to reveal immediate, as well as downstream transcriptional changes, both acute (20 minutes) and longer treatment (3 hours) with BDNF were used herein. […] Two independent Atlas arrays were performed using RNA from hippocampal cells treated for either 20 minutes or 3 hours of BDNF (50 ng/mL) and control sister cultures.
Of those genes selected, the regulation of 7% at 20 minutes and 40% at 3 hours were validated, although the magnitude of regulation was not always identical to that observed on the microarray. To focus on genes specifically involved in plasticity, a related neurotrophin, nerve growth factor (NGF), not inducing synaptic plasticity (Levine et al. (1996) supra), served as a control.
Time-mated pregnant rats were sacrificed by CO2 asphyxiation in accordance with institutional guidelines for care and use of animals. Fetuses were removed by caesarean section and transferred to a sterile petri dish with phosphate-buffered saline. Fetal hippocampi were dissected from surrounding brain tissue and meninges were completely removed. Low-density cultures of dissociated embryonic day 18 rat hippocampi (Sprague Dawley from Hilltop Laboratories, Scottsdale, Pa.) were prepared using standard methods (Thakker-Varia et al. (2001) supra). Briefly, pooled tissue from each litter was mechanically dissociated in nutrient medium containing 7.5% fetal bovine serum and plated on poly-D-lysine-coated culture dishes at 350,000 cells/dish. Cultures were maintained in serum-free medium (Thakker-Varia et al., 2001) for 10-14 days and contained pure neurons.
Total cellular RNA was prepared from neuronal cultures treated with either BDNF (50 ng/ml) or vehicle (water) for either 20 min or 3 hr by the guanidine isothiocyanate method and CsCl gradients (Thakker-Varia et al., 2001). DNAse-treated total RNA was prepared from neurotrophin or control hippocampal cultures and reverse transcribed using gene specific primers. Radioactively labeled probes were then hybridized to Atlas Arrays Rat 1.2 (Clontech, Palo Alto, Calif.) according to manufacturer's protocol. Arrays were performed in duplicate with an independent source of RNA. The hybridization pattern was analyzed on a phosphorimager and normalized to the global hybridization signal. Analysis was performed by Clontech using 1.7-fold change as criteria for significance. All transcriptional changes were confirmed by real time RT-PCR on independent samples (see below).
as §1

[1] = NGF as control neurotrophin, 20 minute section of Table 1
[2] = NGF as control neurotrophin, 3 hour section of Table 1

Compound | Effect on BDNF-induced transcription of the immediate early genes and VGF (Hippocampal neurons) | Effect of inhibitor on BDNF-induced VGF transcription (Hippocampal neurons) | Effect of inhibitor on BDNF-induced Arc transcription (Hippocampal neurons) | Effect of inhibitor on BDNF-induced c-fos transcription (Hippocampal neurons) | Effect of inhibitor on BDNF-induced EGR-1 transcription (Hippocampal neurons) | further results
O=S(=O)(NCCNC/C=C/c1ccc(Br)cc1)c1cccc2cnccc12 [H-89] | did not affect gene expression | – | – | – | – | –
NGF: related neurotrophin, nerve growth factor, not inducing synaptic plasticity, served as a control | – | – | – | – | – | Effect of NGF on transcription of BDNF-induced genes (hippocampal cells): did not affect transcription of most genes; NGF effect on Arc transcription (hippocampal cells; [1]): UC; NGF effect on EGR1 transcription (hippocampal cells; [1]): UC; NGF effect on c-fos transcription (hippocampal cells; [1]): UC; NGF effect on Arc transcription (hippocampal cells; [2]): UC; NGF effect on CyclinD1 transcription (hippocampal cells; [2]): UC; NGF effect on EGR1 transcription (hippocampal cells; [2]): UC; NGF effect on Fra2 transcription (hippocampal cells; [2]): DOWN; NGF effect on Kv + 1.1 transcription (hippocampal cells; [2]): UC; NGF effect on NPY transcription (hippocampal cells; [2]): DOWN; NGF effect on Na + ch transcription (hippocampal cells; [2]): UC; NGF effect on PTP1B transcription (hippocampal cells; [2]): UC; NGF effect on SSTR4 transcription (hippocampal cells; [2]): DOWN; NGF effect on SgII transcription (hippocampal cells; [2]): UC; NGF effect on UNC5H2 transcription (hippocampal cells; [2]): UC; NGF effect on VGF transcription (hippocampal cells; [2]): UC; NGF effect on c-fos transcription (hippocampal cells; [2]): UC
COc1ccc2c(c1)CC[C@@H]1[C@@H]2CC[C@]2(C)[C@@H](NCCCCCCN3C(=O)C=CC3=O)CC[C@@H]12 [U73122] | blocked | Blocked | Blocked | Blocked | – | –
COc1cccc(-c2cc(=O)c3ccccc3o2)c1N [PD98059] | blocked | Blocked | Blocked | Blocked | Blocked | –
COc1ccc(S(=O)(=O)N(CCO)c2ccccc2CN(C)C/C=C/c2ccc(Cl)cc2)cc1 [KN93] | blocked | Blocked | Blocked | Blocked | Blocked | –
N#CC(=C(/N)Sc1ccccc1N)/C(C#N)=C(\N)Sc1ccccc1N [U0126] | blocked | Blocked | Blocked | Blocked | Blocked | –
COC(=O)[C@@]1(O)C[C@H]2O[C@]1(C)n1c3ccccc3c3c4c(c5c6ccccc6n2c5c31)C(=O)NC4 [K252a] | blocked | Blocked | Blocked | Blocked | Blocked | –
